Measured values as given in patent US20250179077A1, “QUINAZOLINE COMPOUNDS AND USES THEREOF AS INHIBITORS OF MUTANT KRAS PROTEINS” (AMGEN INC., priority 2022, published 2025).
Read-outs that look alike come from different tables or passages of the source.

Experiments:
[1] = target: His-tagged KRAS G12D protein (Homo sapiens, UniProt P01116, G12D); experiment: KRAS G12D TR-FRET Assay; type: binding
How it was run: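 His-KRAS G12D (20 nM) was preincubated with titrated compound for 30 min at RT in HEPES pH 7.4 buffer with MgCl2, 10 μM GDP. Biotin-KRPep-2d (20 nM) was then added for 1 h, followed by Eu-anti-His/streptavidin-d2 for 1 h. The 665/615 nm TR-FRET ratio was fitted 4-parameter to give IC50.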

[2] = target: GDP-bound KRAS protein (aa 1-169), containing both G12D and C118A amino acid substitutions (Homo sapiens, UniProt P01116, C118A/G12D); experiment: KRAS G12D Coupled Nucleotide Exchange Assay; type: biochemical
Description: KRAS G12D Coupled Nucleotide Exchange Assay
Following compound pre-incubation, purified SOS protein (aa 564-1049) and GTP (Roche 10106399001) were added to the assay wells and incubated for an additional 30 min. […] The assay plates were then read on a PerkinElmer EnVision Multilabel Reader, using AlphaScreen® technology, and data were analyzed using a 4-parameter logistic model to calculate IC50 values.

[3] = system: Phosphorylation of ERK1/2 in AsPC-1 cells; experiment: Phospho-ERK1/2 MSD Assay; type: cell-based
How it was run: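 Phospho-ERK1/2 was quantified by MSD whole-cell lysate immunoassay in RIPA lysates made with protease/phosphatase inhibitors. A 4-parameter logistic model gave IC50.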

[4] = Homo sapiens, ASPC1, 2 h, read-out: 2 h p-ERK (AsPC-1 cells), IC50, AsPC-1 cells, 2 h compound treatment

Chain of GDP-bound KRAS protein (aa 1-169), containing both G12D and C118A amino acid substitutions (P01116 1-169 isoform P01116-2 G12D/C118A): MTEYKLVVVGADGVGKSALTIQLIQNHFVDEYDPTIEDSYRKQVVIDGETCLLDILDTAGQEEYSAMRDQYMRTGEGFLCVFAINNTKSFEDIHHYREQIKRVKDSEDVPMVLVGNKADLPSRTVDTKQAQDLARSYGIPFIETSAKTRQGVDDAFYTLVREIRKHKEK
Chain of His-tagged KRAS G12D protein (P01116 1-188 isoform P01116-2 G12D): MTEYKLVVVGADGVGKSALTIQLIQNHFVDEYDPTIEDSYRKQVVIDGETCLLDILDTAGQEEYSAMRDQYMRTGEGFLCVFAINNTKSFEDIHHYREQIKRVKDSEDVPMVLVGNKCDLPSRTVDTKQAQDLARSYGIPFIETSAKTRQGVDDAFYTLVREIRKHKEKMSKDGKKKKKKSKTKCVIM

IC50 [1] [µM] | IC50 [2] [µM] | IC50 [3, 4] [µM] | IC50 ([3]; read-out: 2 h p-ERK (AsPC-1 cells), IC50, AsPC-1 cells, 2 h compound treatment) [µM] | SMILES
0.117 | 0.010 | 1.05 | – | CCc1c(F)ccc2cc(N)cc(-c3ccc4c(N5CCC[C@@](C)(O)C5)nc(OC[C@@]56CCCN5C[C@H](F)C6)nc4c3F)c12 [Example 74, (R)-1-(7-(3-Amino-8-ethyl-7-fluoronaphthalen-1-yl)-8-fluoro-2-(((2R,7aS)-2-fluorotetrahydro-1H-pyrrolizin-7a(5H)-yl)methoxy)quinazolin-4-yl)-3-methylpiperidin-3-ol]
0.005 | 0.003 | 0.004 | – | CCc1cccc2cc(O)cc(-c3c(F)cc4c(N5CCOCC(C)(O)C5)nc(OC[C@@]56CCCN5C[C@H](F)C6)nc4c3F)c12 (single isomer, unassigned) [Example 33]
0.022 | 0.013 | 1.67 | – | Oc1cc(-c2ccc3c(N4CCCOCC4)nc(OCC45CCCN4CCC5)nc3c2F)c2ccccc2c1 [Example 43, 4-(8-Fluoro-4-(1,4-oxazepan-4-yl)-2-((tetrahydro-1H-pyrrolizin-7a(5H)-yl)methoxy)quinazolin-7-yl)naphthalen-2-ol]
0.004 | 0.004 | 0.026 | – | CCc1c(F)ccc2cc(O)cc(-c3c(F)cc4c(N5CCC[C@]6(CCS(=O)(=O)C6)C5)nc(OC[C@@]56CCCN5C[C@H](F)C6)nc4c3F)c12 (single isomer, unassigned) [Example 94]
0.003 | 0.003 | 0.041 | – | C/C=C\c1c(Cl)cc2[nH]ncc2c1-c1c(F)cc2c(N3CCC[C@]4(CCO4)C3)nc(OC[C@@]34CCCN3C[C@H](F)C4)nc2c1F (single isomer, unassigned) [Example 113]
0.007 | 0.005 | 0.028 | – | CCc1c(F)ccc2cc(O)cc(-c3c(F)cc4c(N5CCC[C@]6(COC(=O)O6)C5)nc(OC[C@@]56CCCN5C[C@H](F)C6)nc4c3F)c12 (single isomer, unassigned) [Example 93]
0.02 | 0.012 | 1.08 | – | CCc1c(F)ccc2cc(O)cc(-c3c(F)cc4c(N5C[C@@H]6CO[C@@H](C6)C5)nc(OC[C@@]56CCCN5C[C@H](F)C6)nc4c3F)c12 (racemic) [Example 36, rac-4-(4-((1R,5S)-6-Oxa-3-azabicyclo[3.2.1]octan-3-yl)-6,8-difluoro-2-(((2R,7aS)-2-fluorotetrahydro-1H-pyrrolizin-7a(5H)-yl)methoxy)quinazolin-7-yl)-5-ethyl-6-fluoronaphthalen-2-ol]
0.01 | 0.006 | 0.087 | – | CC1CCCc2cc(O)cc(-c3ccc4c(N5CCC[C@@](C)(O)C5)nc(OC[C@@]56CCCN5C[C@H](F)C6)nc4c3F)c21 (stereo partly drawn) [Example 96, (3R)-1-(8-Fluoro-2-(((2R,7aS)-2-fluorotetrahydro-1H-pyrrolizin-7a(5H)-yl)methoxy)-7-(3-hydroxy-8-methyl-5,6,7,8-tetrahydronaphthalen-1-yl)quinazolin-4-yl)-3-methylpiperidin-3-ol]
0.004 | 0.003 | 0.115 | – | C/C=C\c1c(Cl)cc2[nH]ncc2c1-c1ccc2c(N3CCC[C@@](C)(O)C3)nc(OC[C@@]34CCCN3C[C@H](F)C4)nc2c1F [Example 108, (3R)-1-(7-(6-Chloro-5-((Z)-prop-1-en-1-yl)-1H-indazol-4-yl)-8-fluoro-2-(((2R,7aS)-2-fluorotetrahydro-1H-pyrrolizin-7a(5H)-yl)methoxy)quinazolin-4-yl)-3-methylpiperidin-3-ol]
0.005 | 0.003 | 0.055 | – | CCc1c(F)ccc2cc(O)cc(-c3ccc4c(N5CCC[C@]6(C5)C[C@@H](O)C6)nc(OC[C@@]56CCCN5C[C@H](F)C6)nc4c3F)c12 [Example 87, (2S,4s)-6-(7-(8-Ethyl-7-fluoro-3-hydroxynaphthalen-1-yl)-6,8-difluoro-2-(((2R,7a.S)-2-fluorotetrahydro-1H-pyrrolizin-7a(5H)-yl)methoxy)quinazolin-4-yl)-6-azaspiro[3.5]nonan-2-ol]
0.004 | 0.002 | 0.007 | – | CCc1c(F)ccc2cc(O)cc(-c3c(F)cc4c(N5CCC[C@]6(CNC(=O)O6)C5)nc(OC[C@@H]5C[C@@H](F)CN5C)nc4c3F)c12 (single isomer, unassigned) [Example 80]
0.006 | 0.004 | 0.052 | – | CCc1c(F)ccc2cc(O)cc(-c3ccc4c(N5CCC[C@]6(COC(=O)O6)C5)nc(OC[C@@]56CCCN5C[C@H](F)C6)nc4c3F)c12 (single isomer, unassigned) [Example 86]
0.005 | 0.005 | 0.125 | – | C/C=C\c1c(Cl)cc2[nH]ncc2c1-c1c(F)cc2c(N3CCC[C@](O)(C(F)F)C3)nc(OC[C@@]34CCCN3C[C@H](F)C4)nc2c1F (single isomer, unassigned) [Example 112]
0.021 | 0.008 | – | 0.039 | CCc1c(F)ccc2cc(O)cc(-c3c(F)cc4c(N5CCCC6(CNC(=O)O6)C5)nc(OC[C@@]56CCCN5C[C@H](F)C6)nc4c3F)c12 (single isomer, unassigned) [Example 59]

SMILES | IC50 [1] [µM] | IC50 [2] [µM] | IC50 [3, 4] [µM] | IC50 ([3]; read-out: 2 h p-ERK (AsPC-1 cells), IC50, AsPC-1 cells, 2 h compound treatment) [µM]
CCc1c(F)ccc2cc(O)cc(-c3c(F)cc4c(N5[C@H]6CCC(O)[C@@H]5CC6)nc(OC[C@@]56CCCN5C[C@H](F)C6)nc4c3F)c12 (mixture of isomers) [Example 55, rac-(1S,5R)-8-(7-(8-Ethyl-7-fluoro-3-hydroxynaphthalen-1-yl)-6,8-difluoro-2-(((2R,7aS)-2-fluorotetrahydro-1H-pyrrolizin-7a(5H)-yl)methoxy)quinazolin-4-yl)-8-azabicyclo[3.2.1]octan-2-ol] | 0.021 | 0.011 | 0.822 | –
C/C=C\c1c(Cl)cc2[nH]ncc2c1-c1c(F)cc2c(N3CCC[C@@](C)(O)C3)nc(OC[C@@]34CCCN3C[C@H](F)C4)nc2c1F (single isomer, unassigned) [Example 120] | 0.004 | 0.003 | 0.035 | –
